Assay results as given in patent US12655125B2 (SIRONAX LTD., priority 2020, dated 2026).

System: HT-29 cells
Test: HT29 Cells 0FBS Assay In Vitro (TNF-α/SMAC mimetic/zVAD-FMK induced necroptosis, CellTiter-Glo cell viability)
Format: cell-based
Details: Homo sapiens; HT-29 cells, FBS free medium, TNF-α (10 ng/ml), SMAC mimetic (6 uM), zVAD-FMK (10 μM), 20 hours; geometric mean EC50; read-out: Cell activity (EC50) of Compounds 1-116
Summary of the method: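 Viability was measured by ATP luminescence (CellTiter-Glo) after 20 h at 37° C of compound exposure in 10-point, 1:3 dilutions. Necroptosis in FBS-free HT-29 cultures was driven by a TNF-α (10 ng/ml), SMAC mimetic (6 μM) and zVAD-FMK (10 μM) cocktail. EC50 values are geometric means from duplicate curves.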

`Cc1nc(C)n(-c2ccc(F)c(OC3CN(C(=O)N4N=CCC4c4cc(F)cc(F)c4)C3)c2)n1` (stereo not shown) [compound 116] and `Cc1nn(-c2cc(OC3CN(C(=O)N4N=CC[C@H]4c4cc(F)cc(F)c4)C3)c(F)cn2)c(C)c1C(N)=O` [compound 110, (S)-1-(4-((1-(5-(3,5-difluorophenyl)-4,5-dihydro-1H-pyrazole-1-carbonyl)azetidin-3-yl)oxy)-5-fluoropyridin-2-yl)-3,5-dimethyl-1H-pyrazole-4-carboxamide] fall in the same range of EC50: 0.1 to 100 nM for the first, 0.1 to 100 nM for the second.

`Cc1n[nH]cc1-c1cc(OC2CN(C(=O)N3N=CC[C@H]3c3cc(F)cc(F)c3)C2)c(F)cn1` [compound 85, (S)-(5-(3,5-difluorophenyl)-4,5-dihydro-1H-pyrazol-1-yl)(3-((5-fluoro-2-(3-methyl-1H-pyrazol-4-yl)pyridin-4-yl)oxy)azetidin-1-yl)methanone] and `Cc1n[nH]c(C)c1-c1cc(OC2CN(C(=O)N3N=CC[C@H]3c3cc(F)cc(F)c3)C2)c(F)cn1` [compound 92, (S)-(5-(3,5-difluorophenyl)-4,5-dihydro-1H-pyrazol-1-yl)(3-((2-(3,5-dimethyl-1H-pyrazol-4-yl)-5-fluoropyridin-4-yl)oxy)azetidin-1-yl)methanone] fall in the same range of EC50: 0.1 to 100 nM for the first, 0.1 to 100 nM for the second.

First: Cn1ncc(N)c1-c1cc(OC2CN(C(=O)N3N=CC[C@H]3c3cc(F)cc(F)c3)C2)c(F)cn1 [compound 53, (S)-(3-((2-(4-amino-1-methyl-1H-pyrazol-5-yl)-5-fluoropyridin-4-yl)oxy)azetidin-1-yl)(5-(3,5-difluorophenyl)-4,5-dihydro-1H-pyrazol-1-yl)methanone]
Second: Cn1ncc(C(=O)N2CCC2)c1-c1cc(OC2CN(C(=O)N3N=CC[C@H]3c3cc(F)cc(F)c3)C2)c(F)cn1 [compound 72, (S)-azetidin-1-yl(5-(4-((1-(5-(3,5-difluorophenyl)-4,5-dihydro-1H-pyrazole-1-carbonyl)azetidin-3-yl)oxy)-5-fluoropyridin-2-yl)-1-methyl-1H-pyrazol-4-yl)methanone]
The EC50 of the first is lower: 0.1 to 100 nM for the first, 100 to 1000 nM for the second. The first is the more potent here.

First: Cn1ncc(C(=O)N2CC(O)C2)c1-c1cc(OC2CN(C(=O)N3N=CC[C@H]3c3cc(F)cc(F)c3)C2)c(F)cn1 [compound 73, (S)-(5-(3,5-difluorophenyl)-4,5-dihydro-1H-pyrazol-1-yl)(3-((5-fluoro-2-(4-(3-hydroxyazetidine-1-carbonyl)-1-methyl-1H-pyrazol-5-yl)pyridin-4-yl)oxy)azetidin-1-yl)methanone]
Second: Cn1nccc1-c1ccc(F)c(OC2CN(C(=O)N3N=CC[C@H]3c3cc(F)cc(F)c3)C2)n1 (stereo in doubt) [compound 1, (5-(3,5-difluorophenyl)-4,5-dihydro-1H-pyrazol-1-yl)(3-((3-fluoro-6-(1-methyl-1H-pyrazol-5-yl)pyridin-2-yl)oxy)azetidin-1-yl)methanone]
The EC50 of the first is higher: 100 to 1000 nM for the first, 0.1 to 100 nM for the second.

Same assay, conditions: Homo sapiens; HT-29 cells, FBS free medium, TNF-α (10 ng/ml), SMAC mimetic (6 uM), zVAD-FMK (10 μM), 20 hours; geometric mean EC50; read-out: Cell activity (EC50) of Compounds 117-281

`CN(C)CC(=O)Nc1cnn(C)c1-c1cc(OC2CN(C(=O)N3N=CC[C@H]3c3cc(F)cc(F)c3)C2)c(F)cn1` [compound 122, (S)—N-(5-(4-((1-(5-(3,5-difluorophenyl)-4,5-dihydro-1H-pyrazole-1-carbonyl)azetidin-3-yl)oxy)-5-fluoropyridin-2-yl)-1-methyl-1H-pyrazol-4-yl)-2-(dimethylamino)acetamide] and `CC(C)NC(=O)c1cnn(C)c1-c1cc(OC2CN(C(=O)N3N=CC[C@H]3c3cc(F)cc(F)c3)C2)c(F)cn1` [compound 133, (S)-5-(4-((1-(5-(3,5-difluorophenyl)-4,5-dihydro-1H-pyrazole-1-carbonyl)azetidin-3-yl)oxy)-5-fluoropyridin-2-yl)-N-isopropyl-1-methyl-1H-pyrazole-4-carboxamide] fall in the same range of EC50: 0.1 to 100 nM for the first, 0.1 to 100 nM for the second.

`Cc1nn(C2CCOCC2)c(C)c1-c1cc(OC2CN(C(=O)N3N=CC[C@H]3c3cc(F)cc(F)c3)C2)c(F)cn1` [compound 157, (S)-(5-(3,5-difluorophenyl)-4,5-dihydro-1H-pyrazol-1-yl)(3-((2-(3,5-dimethyl-1-(tetrahydro-2H-pyran-4-yl)-1H-pyrazol-4-yl)-5-fluoropyridin-4-yl)oxy)azetidin-1-yl)methanone] and `Cc1nn(-c2cc(OC3CN(C(=O)N4N=CC[C@H]4c4cc(F)cc(F)c4)C3)c(F)cn2)c(C)c1C(=O)N1CCOCC1` [compound 184, (S)-(5-(3,5-difluorophenyl)-4,5-dihydro-1H-pyrazol-1-yl)(3-((2-(3,5-dimethyl-4-(morpholine-4-carbonyl)-1H-pyrazol-1-yl)-5-fluoropyridin-4-yl)oxy)azetidin-1-yl)methanone] fall in the same range of EC50: 0.1 to 100 nM for the first, 0.1 to 100 nM for the second.

`Cc1[nH]c(C(N)=O)c(C)c1-c1cc(OC2CN(C(=O)N3N=CC[C@H]3c3cc(F)cc(F)c3)C2)c(F)cn1` [compound 191, (S)-4-(4-((1-(5-(3,5-difluorophenyl)-4,5-dihydro-1H-pyrazole-1-carbonyl)azetidin-3-yl)oxy)-5-fluoropyridin-2-yl)-3,5-dimethyl-1H-pyrrole-2-carboxamide] and `Cc1c(-c2cc(OC3CN(C(=O)N4N=CC[C@H]4c4cc(F)cc(F)c4)C3)c(F)cn2)nn(C)c1N` [compound 218, (S)-(3-((2-(5-amino-1,4-dimethyl-1H-pyrazol-3-yl)-5-fluoropyridin-4-yl)oxy)azetidin-1-yl)(5-(3,5-difluorophenyl)-4,5-dihydro-1H-pyrazol-1-yl)methanone] fall in the same range of EC50: 0.1 to 100 nM for the first, 0.1 to 100 nM for the second.

`O=C(N1CC(Oc2cc(-c3ccn[nH]3)ncc2F)C1)N1N=CC[C@H]1c1cc(F)cc(F)c1` [compound 261, (S)-(5-(3,5-difluorophenyl)-4,5-dihydro-1H-pyrazol-1-yl)(3-((5-fluoro-2-(1H-pyrazol-5-yl)pyridin-4-yl)oxy)azetidin-1-yl)methanone] and `Cn1nc(CO)nc1-c1cc(OC2CN(C(=O)N3N=CC[C@H]3c3cc(F)cc(F)c3)C2)c(F)cn1` [compound 202, (S)-(5-(3,5-difluorophenyl)-4,5-dihydro-1H-pyrazol-1-yl)(3-((5-fluoro-2-(3-(hydroxymethyl)-1-methyl-1H-1,2,4-triazol-5-yl)pyridin-4-yl)oxy)azetidin-1-yl)methanone] fall in the same range of EC50: 0.1 to 100 nM for the first, 0.1 to 100 nM for the second.

`Cc1c(NCC2CC2)nn(C)c1-c1cc(OC2CN(C(=O)N3N=CC[C@H]3c3cc(F)cc(F)c3)C2)c(F)cn1` [compound 163, (S)-(3-((2-(3-((cyclopropylmethyl)amino)-1,4-dimethyl-1H-pyrazol-5-yl)-5-fluoropyridin-4-yl)oxy)azetidin-1-yl)(5-(3,5-difluorophenyl)-4,5-dihydro-1H-pyrazol-1-yl)methanone] and `Cc1c(N2CC(O)C2)nn(C)c1-c1cc(OC2CN(C(=O)N3N=CC[C@H]3c3cc(F)cc(F)c3)C2)c(F)cn1` [compound 213, (S)-(5-(3,5-difluorophenyl)-4,5-dihydro-1H-pyrazol-1-yl)(3-((5-fluoro-2-(3-(3-hydroxyazetidin-1-yl)-1,4-dimethyl-1H-pyrazol-5-yl)pyridin-4-yl)oxy)azetidin-1-yl)methanone] fall in the same range of EC50: 0.1 to 100 nM for the first, 0.1 to 100 nM for the second.

Compared with `Cc1c(-c2cc(OC3CN(C(=O)N4N=CC[C@H]4c4cc(F)cc(F)c4)C3)c(F)cn2)nn(C)c1C1=NCCN1C` [compound 267, (S)-(5-(3,5-difluorophenyl)-4,5-dihydro-1H-pyrazol-1-yl)(3-((2-(1,4-dimethyl-5-(1-methyl-4,5-dihydro-1H-imidazol-2-yl)-1H-pyrazol-3-yl)-5-fluoropyridin-4-yl)oxy)azetidin-1-yl)methanone], `Cn1nc(CF)nc1-c1cc(OC2CN(C(=O)N3N=CC[C@H]3c3cc(F)cc(F)c3)C2)c(F)cn1` [compound 201, (S)-(5-(3,5-difluorophenyl)-4,5-dihydro-1H-pyrazol-1-yl)(3-((5-fluoro-2-(3-(fluoromethyl)-1-methyl-1H-1,2,4-triazol-5-yl)pyridin-4-yl)oxy)azetidin-1-yl)methanone] is lower in EC50: 100 to 1000 nM for the first, 0.1 to 100 nM for the second.

`Cc1nn(-c2cc(OC3CN(C(=O)N4N=CC[C@H]4c4cc(F)cc(F)c4)C3)c(F)cn2)c(C)c1[S+](C)[O-]` (stereo partly drawn) [compound 204, ((S)-5-(3,5-difluorophenyl)-4,5-dihydro-1H-pyrazol-1-yl)(3-((2-(3,5-dimethyl-4-(methylsulfinyl)-1H-pyrazol-1-yl)-5-fluoropyridin-4-yl)oxy)azetidin-1-yl)methanone] and `CSc1c(C)nn(-c2cc(OC3CN(C(=O)N4N=CC[C@H]4c4cc(F)cc(F)c4)C3)c(F)cn2)c1C` [compound 203, (S)-(5-(3,5-difluorophenyl)-4,5-dihydro-1H-pyrazol-1-yl)(3-((2-(3,5-dimethyl-4-(methylthio)-1H-pyrazol-1-yl)-5-fluoropyridin-4-yl)oxy)azetidin-1-yl)methanone] fall in the same range of EC50: 0.1 to 100 nM for the first, 0.1 to 100 nM for the second.

`Cc1nn(-c2cc(OC3CN(C(=O)N4N=CC[C@H]4c4cc(F)cc(F)c4)C3)c(F)cn2)c(C)c1C(=O)NO` [compound 252, (S)-1-(4-((1-(5-(3,5-difluorophenyl)-4,5-dihydro-1H-pyrazole-1-carbonyl)azetidin-3-yl)oxy)-5-fluoropyridin-2-yl)-N-hydroxy-3,5-dimethyl-1H-pyrazole-4-carboxamide] and `Cc1nn(-c2cc(OC3CN(C(=O)N4N=CC[C@H]4c4cc(F)cc(F)c4)C3)c(F)cn2)c(C)c1S(N)(=O)=O` [compound 220, (S)-1-(4-((1-(5-(3,5-difluorophenyl)-4,5-dihydro-1H-pyrazole-1-carbonyl)azetidin-3-yl)oxy)-5-fluoropyridin-2-yl)-3,5-dimethyl-1H-pyrazole-4-sulfonamide] fall in the same range of EC50: 0.1 to 100 nM for the first, 0.1 to 100 nM for the second.

`Cc1n[nH]c(C)c1-c1ccc(F)c(OC2CN(C(=O)N3N=CC[C@H]3c3cc(F)cc(F)c3)C2)c1` [compound 198, (S)-(5-(3,5-difluorophenyl)-4,5-dihydro-1H-pyrazol-1-yl)(3-(5-(3,5-dimethyl-1H-pyrazol-4-yl)-2-fluorophenoxy)azetidin-1-yl)methanone] showed an EC50 of 0.1 to 100 nM.
